“Also recorded” adds a separate entry of the source. Counter-ions that a name gives are not always drawn. Like-named read-outs stand apart in the source and are kept apart here.
Experiments:
MMP-9 = MMP-9 (Homo sapiens (Human), UniProt P14780); assay: Enzyme inhibition, MMP-9 catalytic domain; format: biochemical; details: for residence time: calculated as 1/koff
Procedure: (§6) Inhibitor stock solutions (10 mM) were prepared freshly in DMSO before enzyme inhibition assays. […] Enzyme inhibition studies were carried out using a Cary Eclipse fluorescence spectrophotometer (Varian, Walnut Creek, Calif., USA).

MMP-8 = MMP-8 (Homo sapiens (Human), UniProt P22894); assay: Enzyme inhibition, MMP-8 catalytic domain; format: biochemical
Procedure: as §6

CD31 = assay: Angiogenesis by anti-CD31 staining; format: in vivo, mouse; details: db/db mice wounds
Procedure: (§1) Wounds were embedded in optimal cutting temperature (OCT, Tissue-Tek, Sakura Finetek, Torrance, Calif., USA) compound and cryosectioned at 12-μm thickness for hematoxylin-eosin (H&E) and at 8-μm thickness for in-situ zymography. Re-epithelialization was assessed on a fluorescent microscope (Nikon Eclipse 90i, Nikon Instruments, Inc., Melville, N.Y., USA). Apoptotic cells in wound sections were assessed using a modified terminal deoxynucleotidyl transferase-mediated dUTP-nick-end labeling (TUNEL) assay kit, following the manufacturer's instructions (Trevigen, Inc., Gaithersburg, Md., USA). For in-situ zymography, unfixed cryostat sections of wound tissues were incubated in reaction buffer (50 mM TBS pH 7.6) containing DQ-gelatin or DQ-collagen (Molecular Probes, Inc., Eugene, Oreg., USA) at 37° C. for 6 h. After fixation in 4% paraformaldehyde in PBS, cells were counterstained with DAPI and the images were visualized by fluorescence microscopy. Immunofluorescent detection of vascular density was performed by staining the tissues with Alexa Fluor 488 anti-mouse CD31 (BioLegend, San Diego, Calif., USA), followed by staining the nuclei with DAPI. The images for in-situ zymography and vascular density were obtained by confocal microscopy.

TGF-β1 = TGF-β1 in wound tissue by ELISA; format: in vivo, mouse; details: db/db mice, versus vehicle
Procedure: (§2) Mice were sacrificed on days 7, 10, and 14, and the excised wounds were embedded in OCT compound and cryosectioned for histological evaluation and in situ zymography.
(§3) Wound tissues (n=3 mice/group) were harvested and immediately frozen in liquid nitrogen on days 1, 3, and 14. The extracted tissues were homogenized in cold lysis buffer containing free-EDTA protease inhibitor cocktail (Pierce, Rockford, Ill., USA). The lysates were analyzed for protein concentration by the Bradford protein assay (Bio-Rad, Hercules, Calif., USA). The levels of IL-6, TGF-β1 and VEGF in the lysates were determined by ELISA, following the manufacturer's protocol (Abcam, Cambridge, Mass., USA). The cytokine levels for each mouse sample were expressed in picograms/mg tissue.

MMP-2 = MMP-2 (Homo sapiens (Human), UniProt P08253); assay: Enzyme inhibition, MMP-2; format: biochemical
Source text: (§4) Human recombinant active MMP-2 and MMP-7, and the catalytic domains of MMP-3 and MMP-14/MT1-MMP were purchased from EMD Chemicals, Inc. (San Diego, Calif., USA); human recombinant catalytic domains of MMP-1, MMP-8, and MMP-9 were purchased from Enzo Life Sciences, Inc. (Farmingdale, N.Y., USA); human recombinant active ADAM9 and ADAM10 were purchased from R&D Systems (Minneapolis, Minn., USA). Fluorogenic substrates MOCAc-Pro-Leu-Gly-Leu-A2pr(Dnp)-Ala-Arg-NH2 (for MMP-2, MMP-7, MMP-9 and MMP-14) and MOCAc-Arg-Pro-Lys-Pro-Val-Glu-Nva-Trp-Arg-Lys(Dnp)-NH2 (for MMP-3) were purchased from Peptides International (Louisville, Ky., USA); Mca-KPLGL-Dpa-AR-NH2 (for MMP-1, MMP-8 and ADAM10) and Mca-PLAQAV-Dpa-RSSSR-NH2 (for ADAM9) were purchased from R&D Systems (Minneapolis, Minn., USA). The Km values for MMP-2, MMP-9 and MMP-14 were the same as previously reported by Gooyit et al. ((2013) J. Med. Chem. 56(20):8139-8150). Inhibitor stock solutions (10 mM) were prepared freshly in DMSO before enzyme inhibition assays. We followed the same methodology for enzyme inhibition studies as reported before by Page-McCaw et al. ((2007) Nat Rev Mol Cell Biol 8(3):221-233). Enzyme inhibition studies were carried out using a Cary Eclipse fluorescence spectrophotometer (Varian, Walnut Creek, Calif., USA).

MMP-14 = MMP-14 (Homo sapiens (Human), UniProt P50281); assay: Enzyme inhibition, MMP-14 catalytic domain; format: biochemical
Source text: as §4

[1] = tested on: MMP-8 activity (collagenase) in diabetic wounds; assay: In-situ zymography with DQ-collagen; format: in vivo, mouse; details: db/db mice
Source text: (§7) In-situ zymography detects MMP activity in vivo using the fluorogenic substrates: DQ-gelatin for gelatinase (MMP-2 and MMP-9) activity and DQ-collagen for collagenase (MMP-1, MMP-8, and MMP-13) activity.
(§8) Wounds were embedded in optimal cutting temperature (OCT, Tissue-Tek, Sakura Finetek, Torrance, Calif., USA) compound and cryosectioned at 12-μm thickness for hematoxylin-eosin (H&E) and at 8-μm thickness for in-situ zymography. […] For in-situ zymography, unfixed cryostat sections of wound tissues were incubated in reaction buffer (50 mM TBS pH 7.6) containing DQ-gelatin or DQ-collagen (Molecular Probes, Inc., Eugene, Oreg., USA) at 37° C. for 6 h. After fixation in 4% paraformaldehyde in PBS, cells were counterstained with DAPI and the images were visualized by fluorescence microscopy. […] The images for in-situ zymography and vascular density were obtained by confocal microscopy.

ADAM10 = ADAM10 (Homo sapiens (Human), UniProt O14672); assay: Enzyme inhibition, ADAM10; format: biochemical
Source text: as §4

ADAM9 = ADAM9 (Homo sapiens (Human), UniProt Q13443); assay: Enzyme inhibition, ADAM9; format: biochemical
Source text: as §4

[2] = tested on: re-epithelialization of diabetic wounds; assay: H&E staining, re-epithelialization of diabetic wounds; format: in vivo, mouse; details: db/db mice, ND-336 0.1 mg/wound/day, day 14
Procedure: (§5) Wound measurements were taken on days 0, 7, 10, and 14. Animals were sacrificed on day 14 and wounds analyzed by H&E staining, TUNEL, and in-situ zymography.
Female diabetic db/db (BKS.Cg-Dock7m+/+Leprdb/J, 8-weeks old, 38±3 g, n=24) were used for this study. Wounds were inflicted as described and the following day the wounds were treated topically with MMP-8 (50 μL of 20 μg/mL MMP-8 in reaction buffer) or vehicle (50 μL reaction buffer) once a day for 14 days. The reaction buffer consisted of 50 mM Tris (pH 7.5), 10 mM CaCl2, 150 mM NaCl, and 0.05% (w/v) Brij-35 (polyoxyethyleneglycoli dodecyl ether). […]
Wounds were embedded in optimal cutting temperature (OCT, Tissue-Tek, Sakura Finetek, Torrance, Calif., USA) compound and cryosectioned at 12-μm thickness for hematoxylin-eosin (H&E) and at 8-μm thickness for in-situ zymography. Re-epithelialization was assessed on a fluorescent microscope (Nikon Eclipse 90i, Nikon Instruments, Inc., Melville, N.Y., USA). Apoptotic cells in wound sections were assessed using a modified terminal deoxynucleotidyl transferase-mediated dUTP-nick-end labeling (TUNEL) assay kit, following the manufacturer's instructions (Trevigen, Inc., Gaithersburg, Md., USA). […] After fixation in 4% paraformaldehyde in PBS, cells were counterstained with DAPI and the images were visualized by fluorescence microscopy. […]

MMP-3 = MMP-3 (Homo sapiens (Human), UniProt P08254); assay: Enzyme inhibition, MMP-3 catalytic domain; format: biochemical
Source text: as §4

VEGF = VEGF in wound tissue by ELISA; format: in vivo, mouse; details: db/db mice
Procedure: as §2, §3

[3] = Stability in the buffers of the kinetic assays; format: physicochemical
MMP-7 = MMP-7 (Homo sapiens (Human), UniProt P09237); assay: Enzyme inhibition, MMP-7; format: biochemical
Source text: as §4

[4] = tested on: MMP-9 activity (gelatinase) in diabetic wounds; assay: In-situ zymography with DQ-gelatin; format: in vivo, mouse; details: db/db mice
Source text: as §7, §8

[5] = tested on: apoptotic cells in diabetic wounds; assay: TUNEL apoptosis detection in diabetic wounds; format: in vivo, mouse; details: db/db mice, ND-336 0.1 mg/wound/day, day 14
Source text: as §5, §2
as §1, with “Immunofluorescent detection of vascular density was performed by staining the tissues with Alexa Fluor 488 anti-mouse CD31 (BioLegend, San Diego, Calif., USA), followed by staining the nuclei with DAPI. The images for in-situ zymography and vascular density were obtained by confocal microscopy.” left out

IL-6 = IL-6 in wound tissue by ELISA; format: in vivo, mouse; details: db/db mice, versus vehicle
Procedure: as §2, §3

MMP-1 = MMP-1 (Homo sapiens (Human), UniProt P03956); assay: Enzyme inhibition, MMP-1 catalytic domain; format: biochemical
Source text: as §4

[6] = tested on: diabetic wounds of db/db mice; assay: Excisional diabetic wound model, wound closure; format: in vivo, mouse
Procedure: Female diabetic db/db mice (BKS.Cg-Dock7^m+/+Lepr^db/J, 8-weeks old) were purchased from the Jackson Laboratory (Bar Harbor, Me., USA) and fed 5001 Laboratory Rodent Diet (LabDiet, St. Louis, Mo., USA) and water ad libitum. Mice were housed in polycarbonate shoebox cages with hardwood bedding at 72±2° F. and 12 h light/12 h dark.
The dorsal area of the mice was shaved, and a single excisional 8-mm diameter wound (50 mm^2) was made on the dorsal thorax with a biopsy punch (Miltex, Plainsboro, N.J., USA) while the animals were under isofluorane anesthesia. Wounds were covered with Tegaderm™ dressing (3M Company, St. Paul, Minn., USA). Topical treatment was started the next day.
Mice were anesthetized with isofluorane, and wounds were photographed with an Olympus SP-800 UZ camera mounted on a tripod at a fixed distance; a ruler was included in the digital photo. Wound areas were calculated using NIH ImageJ software (version 1.48) and expressed as percent change in wound area relative to day 0.
as §5
Female diabetic db/db (BKS.Cg-Dock7m+/+Leprdb/J, 8-weeks old, 38±3 g, n=24) were used for this study. Wounds were inflicted as described and the following day the wounds were treated topically with MMP-8 (50 μL of 20 μg/mL MMP-8 in reaction buffer) or vehicle (50 μL reaction buffer) once a day for 14 days. The reaction buffer consisted of 50 mM Tris (pH 7.5), 10 mM CaCl2, 150 mM NaCl, and 0.05% (w/v) Brij-35 (polyoxyethyleneglycoli dodecyl ether). Digital photographs of the wounds were taken on days 0, 7, 10, and 14 while animals were under isoflurane anesthesia. On days 7 and 14, 12 mice (n=6 per group) were sacrificed. The wounds were excised, embedded in OCT compound, and cryosectioned for histological evaluation and in-situ zymography.
as §2

[7] = combination study: ND-336 0.05 mg/wound/day, MMP-8 1 μg/wound/day
[8] = topical ND-336 0.1 mg/wound/day

MMP-8, sequence (P22894 100-262): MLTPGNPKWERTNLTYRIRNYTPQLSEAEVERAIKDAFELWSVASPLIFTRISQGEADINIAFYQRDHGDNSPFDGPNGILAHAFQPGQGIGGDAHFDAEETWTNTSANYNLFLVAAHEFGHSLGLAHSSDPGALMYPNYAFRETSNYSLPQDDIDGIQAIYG
MMP-9, sequence (P14780 107-444): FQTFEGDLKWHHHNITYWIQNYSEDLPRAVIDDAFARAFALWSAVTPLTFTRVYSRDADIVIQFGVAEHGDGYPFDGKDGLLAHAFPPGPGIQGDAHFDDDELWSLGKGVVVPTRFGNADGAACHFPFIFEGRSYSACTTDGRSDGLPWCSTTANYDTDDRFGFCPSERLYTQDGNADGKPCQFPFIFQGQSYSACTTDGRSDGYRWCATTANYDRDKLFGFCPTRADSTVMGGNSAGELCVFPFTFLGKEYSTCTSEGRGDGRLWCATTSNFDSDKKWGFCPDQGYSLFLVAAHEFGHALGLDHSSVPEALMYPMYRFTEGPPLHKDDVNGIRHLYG
MMP-7, sequence (P09237 95-267): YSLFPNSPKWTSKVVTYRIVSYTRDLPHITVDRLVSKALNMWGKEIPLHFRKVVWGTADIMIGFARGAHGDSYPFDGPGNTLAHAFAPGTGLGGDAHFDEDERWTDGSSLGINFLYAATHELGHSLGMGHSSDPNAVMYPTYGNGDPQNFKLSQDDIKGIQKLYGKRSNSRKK
MMP-1, sequence (P03956 100-269): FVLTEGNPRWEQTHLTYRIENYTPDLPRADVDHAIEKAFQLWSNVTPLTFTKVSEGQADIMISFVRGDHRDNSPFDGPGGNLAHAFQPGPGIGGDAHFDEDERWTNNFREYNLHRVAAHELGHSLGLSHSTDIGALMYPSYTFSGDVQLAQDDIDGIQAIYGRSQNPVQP
ADAM9, sequence (Q13443 whole entry, looked up, change not shown): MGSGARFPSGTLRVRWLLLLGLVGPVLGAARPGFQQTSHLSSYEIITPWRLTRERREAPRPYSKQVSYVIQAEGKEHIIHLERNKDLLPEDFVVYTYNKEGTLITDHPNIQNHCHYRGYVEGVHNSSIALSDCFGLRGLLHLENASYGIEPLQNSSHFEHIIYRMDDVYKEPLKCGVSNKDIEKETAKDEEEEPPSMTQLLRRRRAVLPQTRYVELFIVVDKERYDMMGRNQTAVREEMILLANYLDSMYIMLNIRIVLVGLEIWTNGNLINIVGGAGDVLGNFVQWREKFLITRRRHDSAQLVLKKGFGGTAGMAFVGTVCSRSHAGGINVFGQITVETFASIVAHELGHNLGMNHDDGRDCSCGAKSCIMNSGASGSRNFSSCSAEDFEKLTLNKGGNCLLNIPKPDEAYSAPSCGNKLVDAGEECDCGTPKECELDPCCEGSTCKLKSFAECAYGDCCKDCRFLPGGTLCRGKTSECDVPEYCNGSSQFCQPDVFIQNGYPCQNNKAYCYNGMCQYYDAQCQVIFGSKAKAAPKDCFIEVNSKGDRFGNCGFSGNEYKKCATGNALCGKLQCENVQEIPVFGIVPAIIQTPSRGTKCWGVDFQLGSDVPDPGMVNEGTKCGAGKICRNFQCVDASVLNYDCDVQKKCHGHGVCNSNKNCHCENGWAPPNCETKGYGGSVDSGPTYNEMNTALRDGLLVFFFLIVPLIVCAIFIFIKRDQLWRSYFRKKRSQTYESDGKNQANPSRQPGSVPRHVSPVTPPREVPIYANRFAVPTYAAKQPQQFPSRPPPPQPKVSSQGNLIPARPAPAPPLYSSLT
MMP-3, sequence (P08254 100-272): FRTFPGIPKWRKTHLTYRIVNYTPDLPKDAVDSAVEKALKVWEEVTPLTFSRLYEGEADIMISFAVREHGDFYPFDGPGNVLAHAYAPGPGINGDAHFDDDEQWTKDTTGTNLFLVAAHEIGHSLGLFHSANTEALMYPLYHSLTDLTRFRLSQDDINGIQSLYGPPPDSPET
ADAM10, sequence (O14672 214-672): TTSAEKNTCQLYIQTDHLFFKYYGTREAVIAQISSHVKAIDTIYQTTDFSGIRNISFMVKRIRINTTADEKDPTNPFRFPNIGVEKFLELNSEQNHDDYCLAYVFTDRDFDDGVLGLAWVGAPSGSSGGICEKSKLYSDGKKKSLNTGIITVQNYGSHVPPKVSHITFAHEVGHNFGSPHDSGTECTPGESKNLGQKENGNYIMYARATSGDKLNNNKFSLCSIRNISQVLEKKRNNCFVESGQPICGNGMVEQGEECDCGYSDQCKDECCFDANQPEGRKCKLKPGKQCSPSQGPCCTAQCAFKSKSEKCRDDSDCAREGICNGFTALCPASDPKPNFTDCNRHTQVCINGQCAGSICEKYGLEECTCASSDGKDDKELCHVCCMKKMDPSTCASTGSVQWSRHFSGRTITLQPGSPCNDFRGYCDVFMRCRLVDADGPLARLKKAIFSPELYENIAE
MMP-2, sequence (P08253 110-660): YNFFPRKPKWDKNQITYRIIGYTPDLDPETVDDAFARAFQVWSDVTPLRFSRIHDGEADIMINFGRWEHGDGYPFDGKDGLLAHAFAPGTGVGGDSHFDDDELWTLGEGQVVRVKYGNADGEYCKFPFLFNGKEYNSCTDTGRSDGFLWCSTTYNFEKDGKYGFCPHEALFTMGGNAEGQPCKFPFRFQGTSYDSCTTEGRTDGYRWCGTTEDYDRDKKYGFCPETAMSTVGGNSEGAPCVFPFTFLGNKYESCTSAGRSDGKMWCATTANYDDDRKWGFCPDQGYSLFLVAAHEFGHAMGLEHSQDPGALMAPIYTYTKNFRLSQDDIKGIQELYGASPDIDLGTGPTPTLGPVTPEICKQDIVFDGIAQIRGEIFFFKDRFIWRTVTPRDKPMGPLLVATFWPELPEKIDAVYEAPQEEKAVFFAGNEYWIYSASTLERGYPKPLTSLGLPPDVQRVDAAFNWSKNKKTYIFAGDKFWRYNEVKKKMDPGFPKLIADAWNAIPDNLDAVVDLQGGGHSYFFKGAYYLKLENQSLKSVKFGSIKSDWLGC

## O=S(=O)(CC1CS1)c1ccc(Oc2ccccc2)cc1 (centres unmarked) [SB-3CT, reference compound]
MMP-9
  Inhibition type, MMP-9: slow-binding

## CCOC(=O)Oc1ccc(Oc2ccc(S(=O)(=O)CC3CS3)cc2)cc1 (centres unmarked) [ND-395]
MMP-8
  Ki: 11 µM
MMP-9
  Inhibition type, MMP-9: slow-binding
  Ki: 0.93 µM
  residence time: 119 min

## CS(=O)(=O)Oc1ccc(Oc2ccc(S(=O)(=O)CC3CS3)cc2)cc1 (centres unmarked) [JNMS-38]
MMP-8
  Inhibition type, MMP-8: linear competitive
MMP-9
  Inhibition type, MMP-9: slow-binding

## NCc1ccc(Oc2ccc(S(=O)(=O)CC3CS3)cc2)cc1 (centres unmarked) [ND-336, (4-(4-((Thiiran-2-ylmethyl)sulfonyl)phenoxy)phenyl)methanamine HCl salt]
CD31
  angiogenesis by anti-CD31 antibodies: increased angiogenesis
TGF-β1
  Area-under-the-curve (AUC) for TGF-β1: significantly reduced
TGF-β1; days 1, 3, 14
  levels of TGF-β1 in wounds: significantly reduced
MMP-2
  Inhibition type, MMP-2: slow-binding
MMP-14
  Inhibition type, MMP-14: slow-binding
[1]; ND-336 0.1 mg/wound/day
  MMP-8 activity in wounds (DQ-collagen): not affected
[1]; [7]
  MMP-8 activity in wounds (DQ-collagen): presence of MMP-8
ADAM10
  inhibition of ADAM10 (in words): marginal to no inhibition
ADAM10; @ 100 μM
  inhibition at 100 µM: 14%
ADAM9; @ 100 μM
  inhibition at 100 µM: 31%
ADAM9; printed as ADAMS
  inhibition of ADAM9 (in words): marginal to no inhibition
[2]
  re-epithelialization (H&E): almost complete re-epithelialization
MMP-8; HCl salt
  Inhibition type, MMP-8: linear noncompetitive; also recorded: linear non-competitive
MMP-3
  inhibition of MMP-3 (in words): marginal to no inhibition
MMP-3; @ 100 μM, catalytic domain
  inhibition at 100 µM: 23%
VEGF; compared to vehicle
  VEGF concentrations in the wounds: increased
VEGF; versus vehicle
  Area-under-the-curve (AUC) for VEGF: significantly increased
[3]
  stability in the buffers used in the kinetic assays: stable
MMP-7
  inhibition of MMP-7 (in words): marginal to no inhibition
MMP-7; @ 100 μM
  inhibition at 100 µM: 1%
MMP-9
  Inhibition type, MMP-9: slow-binding
MMP-9; MMP-9 versus MMP-8
  lower Ki for MMP-9 than for MMP-8: 50 fold
[4]; ND-336 0.1 mg/wound/day
  MMP-9 activity in wounds (DQ-gelatin): significantly decreased
[4]; [7]
  MMP-9 activity in wounds (DQ-gelatin): inhibition of MMP-9
[5]
  apoptosis (TUNEL): significantly decreased
IL-6
  Area-under-the-curve (AUC) for IL-6: significantly reduced
IL-6; days 1, 3, 14
  IL-6 concentrations in wounds: significantly reduced
MMP-1
  inhibition of MMP-1 (in words): marginal to no inhibition
MMP-1; @ 100 μM, catalytic domain
  inhibition at 100 µM: 4%
[6]; 0.05 mg/wound/day, day 14, versus vehicle and 0.025 and 0.01 mg/wound/day
  wound healing in dose-response study: significant better healing
[6]; [8]
  diabetic wound healing (in words): accelerated diabetic wound healing
  wound healing faster than vehicle: about 2 fold

## CCOC(=O)Nc1ccc(Oc2ccc(S(=O)(=O)CC3CS3)cc2)cc1 (centres unmarked) [ND-394]
MMP-8
  Inhibition type, MMP-8: non-competitive
  Ki: 15 µM
MMP-9
  Inhibition type, MMP-9: slow-binding
  Ki: 0.86 µM
  residence time: 25.6 min
